Measurements: paper PMC11259170, “Small-molecule probe for IBD risk variant GPR65 I231L alters cytokine signaling networks through positive allosteric modulation” (Science Advances, 2024)
Where two headings read alike, the source gives them in different places.

How the values were obtained:
mGPR65 = target: T1, mGPR65 (Mus musculus, UniProt Q61038); experiment: cAMP detection in HeLa expression cell line, mGPR65; type: cell-based; settings: for Emax: HeLa, relative to 100uM forskolin (100%) and DMSO (0%), read-out: mGPR Max Activity %; for EC50: mGPR EC50 (uM)
T1 construct: expressed in transfected cells; host or cells: HeLa (ATCC CCL-2), lentiviral transduction, pLX317
Procedure, shortened: (§1)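 TR-FRET cAMP read-out (Lance Ultra; ex 337 nm, em 620 and 665 nm) after 1 h detection in the dark, following a 30 min RT stimulation of 1500 cells per well in pH 7.2 stimulation buffer with compound supplied as 10 mM DMSO stock. Cells: lentivirally transduced HeLa lines carrying V5-tagged GPCR or GFP, kept under 3 μg/ml puromycin.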

hGPR65 = target: T2, hGPR65 (Homo sapiens, UniProt Q8IYL9); experiment: cAMP detection in HeLa expression cell line, hGPR65; type: cell-based; settings: for Emax: HeLa, relative to 100uM forskolin (100%) and DMSO (0%), read-out: hGPR Max Activity %
T2 construct: expressed in transfected cells; host or cells: HeLa (ATCC CCL-2), lentiviral transduction, pLX317
Procedure, shortened: as §1

human GPR4 (hGPR4) = target: T3, human GPR4 (hGPR4) (Homo sapiens, UniProt P46093); experiment: cAMP detection in HeLa expression cell line, hGPR4; type: cell-based; settings: for EC50: pH 7.2, 30 min
T3 construct: expressed in transfected cells; host or cells: HeLa (ATCC CCL-2), lentiviral transduction, pLX317
Protocol: (§2) HeLa stable expression cell lines were produced by lentiviral transduction. Briefly, lentiviral plasmids for each GPCR with a C-terminal V5 Tag ([…]) were made in a pLX317 backbone using competent Escherichia coli (New England Biolabs, C3050H). Lenti-X 293 T (Takara, 632810) cells were transfected with the lentiviral plasmids to produce virus. Low-passage HeLa cells (American Type Culture Collection, CCL-2) were then transduced with lentivirus. After 48 hours, HeLa cells were cultured under selection with puromycin (3 μg/ml) and allowed to recover and expand before storing stocks in liquid nitrogen.
(§3) cAMP was measured in cells using the Lance Ultra cAMP Kit. HeLa cells were cultured under puromycin (3 μg/ml) selection. One day before the experiment, cells were seeded in T75 flasks and allowed to adhere overnight. On the day of the experiment, cells were washed twice with Dulbecco’s PBS and lifted using prewarmed 1× versene solution (Gibco, 15040066). Cells were counted in HBSS (Gibco, 14025092) and then resuspended in stimulation buffer prepared according to the manufacturer’s instructions and adjusted to pH 7.2 using 1 M sodium hydroxide. Cells were added to the plate at a density of 1500 cells per well in white opaque 384-well assay ready microplates containing 100 nl of 10 mM compound in DMSO. Cells were stimulated for 30 min at RT, then lysed and incubated with detection reagents for 1 hour in the dark at RT. Plates were read on BMG Labtech PHERAstar FSX (excitation, 337 nm; emission, 620 and 665 nm). Data analysis was performed using GraphPad Prism.

[1] = Solubility in phosphate buffer; type: physicochemical; settings: read-out: Solubility
Lipophilicity (logD) = type: physicochemical; settings: pH 7.4; pH7.4; read-out: LogD (pH7.4)
[2] = tested on: GFP-expressing HeLa cells; experiment: cAMP detection in HeLa expression cell line, GFP control; type: cell-based, human; settings: Homo sapiens, HeLa, NA = no activity; for Emax: relative to 100uM forskolin (100%) and DMSO (0%), read-out: GFP Max Activity %
Protocol: as §2, §3

[3] = 2nd mGPR column pair, NA = no activity
[4] = first pair of columns, pH 7.2, 30 min
[5] = second pair of columns, pH 7.2, 30 min
[6] = 1st hGPR column pair, NA = no activity
[7] = 2nd hGPR column pair, NA = no activity
[8] = hGPR EC50 (uM), NA = no activity

T3 sequence (P46093 whole entry): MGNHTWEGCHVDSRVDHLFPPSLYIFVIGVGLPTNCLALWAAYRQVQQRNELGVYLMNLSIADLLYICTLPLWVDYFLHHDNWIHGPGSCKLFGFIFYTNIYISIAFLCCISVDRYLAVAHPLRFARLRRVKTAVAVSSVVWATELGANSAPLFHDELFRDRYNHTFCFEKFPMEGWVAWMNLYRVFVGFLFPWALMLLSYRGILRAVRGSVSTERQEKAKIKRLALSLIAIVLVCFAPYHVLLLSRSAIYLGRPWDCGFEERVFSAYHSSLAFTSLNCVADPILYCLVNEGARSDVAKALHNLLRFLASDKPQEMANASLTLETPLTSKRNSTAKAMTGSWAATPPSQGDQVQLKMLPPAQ
T1 sequence (Q61038 whole entry): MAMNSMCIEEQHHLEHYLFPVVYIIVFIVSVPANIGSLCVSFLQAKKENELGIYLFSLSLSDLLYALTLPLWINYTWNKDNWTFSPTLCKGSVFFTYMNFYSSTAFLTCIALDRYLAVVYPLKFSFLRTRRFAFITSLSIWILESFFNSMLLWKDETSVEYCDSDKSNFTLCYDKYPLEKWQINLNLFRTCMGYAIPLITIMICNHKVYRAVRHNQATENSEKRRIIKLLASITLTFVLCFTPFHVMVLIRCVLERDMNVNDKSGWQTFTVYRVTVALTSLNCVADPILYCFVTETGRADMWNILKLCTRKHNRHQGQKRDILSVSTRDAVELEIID
T2 sequence (Q8IYL9 whole entry): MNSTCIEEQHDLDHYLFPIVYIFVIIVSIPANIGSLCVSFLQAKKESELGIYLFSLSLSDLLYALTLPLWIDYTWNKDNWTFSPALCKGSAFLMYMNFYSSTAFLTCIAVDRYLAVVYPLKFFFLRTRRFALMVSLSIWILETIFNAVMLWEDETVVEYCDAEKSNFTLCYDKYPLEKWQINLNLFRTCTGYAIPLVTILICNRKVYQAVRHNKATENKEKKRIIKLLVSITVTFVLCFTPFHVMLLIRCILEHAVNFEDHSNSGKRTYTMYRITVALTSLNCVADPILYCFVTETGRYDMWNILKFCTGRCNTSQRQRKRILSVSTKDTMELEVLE

SMILES	Emax (mGPR65; [3])	Emax (mGPR65; NA = no activity)	EC50 (mGPR65; [3])	EC50 (mGPR65; [4])	EC50 (mGPR65; [5])	EC50 (mGPR65; NA = no activity)	cAMP activity, mGPR65 (mGPR65; pH 7.2)	Emax (hGPR65; [6])	Emax (hGPR65; [7])	EC50 (hGPR65; [8])	EC50 (hGPR65; hGPR EC50 (uM), pH 7.2, 30 min)	EC50 (hGPR65; hGPR EC50, NA = no activity)	EC50 (hGPR65; hGPR EC50, pH 7.2, 30 min)	cAMP activity, hGPR65 (hGPR65; pH 7.2)	solubility [1]	logD (Lipophilicity (logD))	Emax ([2]; 2nd GFP column pair)	further results
COCc1ccc(-c2cc(O)n3ncc(C(=O)Nc4ccc(C(C)C)cc4)c3n2)cc1 [BRD2166, COCc1ccc(cc1)-c1cc(O)n2ncc(C(=O)Nc3ccc(cc3)C(C)C)c2n1]	31.2%	39.3%	0.347 µM	0.618 µM	0.372 µM	0.362 µM	at least 40%	75%	73.7%	2.08 µM	2.94 µM	2.12 µM	2.85 µM	at least 40%				cAMP production relative to BRD2813, hGPR65 (hGPR65; pH 7.2): little effect on cAMP production; cAMP relative to DMSO in the hGPR4 cells (human GPR4 (hGPR4); highest concentration tested): decrease in cAMP
Cc1ccc(NC(=O)c2cnn3c(O)cc(-c4ccc(F)c(Cl)c4)nc23)cc1 [BRD5067, O=C(NC1=CC=C(C)C=C1)C2=C3N(N=C2)C(O)=CC(C4=CC=C(F)C(Cl)=C4)=N3]	37.6%	41.4%	0.537 µM	0.449 µM	0.23 µM	0.328 µM	at least 40%	74.6%	69.2%	0.232 µM	0.534 µM	0.583 µM	0.554 µM	at least 40%	< 1.56 µM	> 4.89	1.17%	EC50 (human GPR4 (hGPR4); GPR4 EC50 (uM)): 0.494 µM; EC50 (human GPR4 (hGPR4); GPR4 EC50, second pair of columns): 0.687 µM; cAMP induction in the hGPR4 cell line (human GPR4 (hGPR4); pH 7.2): additionally induced cAMP
Cc1ccc(NC(=O)c2cnn3c(O)cc(-c4ccc(COC(C)C)cc4)nc23)cc1Cl [BRD5079, O=C(NC1=CC=C(C)C(Cl)=C1)C2=C3N(N=C2)C(O)=CC(C4=CC=C(COC(C)C)C=C4)=N3]	48.8%	57.5%	0.276 µM	0.345 µM	0.591 µM	0.604 µM	at least 40%	81.1%	82.5%	0.428 µM	0.348 µM	0.564 µM	0.417 µM	at least 40%	< 1.56 µM	> 4.23	2.88%	activity for mGPR65 among prioritized molecules (mGPR65; 1.56 μM, pH 7.2): highest activity; activity for hGPR65 (hGPR65): strong activity for hGPR65; activity for hGPR65 among prioritized molecules (hGPR65; 1.56 μM, pH 7.2): highest activity; EC50 ([2]; 1st GFP column pair): 4310 nM; Emax ([2]; 1st GFP column pair): 1.78%; EC50 ([2]; 2nd GFP column pair): 1210 nM
